Measured values reported in the OligoGym collection.
After the bases stand the sugars from the 5' end (letter, count) and the backbone: PS all phosphorothioate, else s phosphorothioate and o phosphodiester by linkage. Methylation of C is not given here. e = 2'-O-(2-methoxyethyl) (MOE); k = constrained ethyl (cEt); d = 2'-deoxy (DNA); m = 2'-O-methyl

Target: HSD17B13
Details: ASO, HepaRG

Row | Sequence | target mRNA inhibition (1 µM) | further results
1 | TAGAGTCGGTCACCTT (sugars k3 d9 k3 e1, PS) | 59% | –
2 | TGGCATGGCTACAGAT (sugars k3 d10 k3, PS) | 57% | –
3 | CCATAACCATAGGACA (sugars k3 d10 k3, PS) | 63% | target mRNA inhibition (0.02 µM): 35%; target mRNA inhibition (0.078 µM): 13%; target mRNA inhibition (0.313 µM): 54%; target mRNA inhibition (1.25 µM): 78%; target mRNA inhibition (5 µM): 91%
4 | CATACCACTCTTCTCA (sugars k3 d10 k3, PS) | 24% | –
5 | TAGTAATCACAAGTAA (sugars k3 d10 k3, PS) | 30% | –
6 | ACCGTTTTGGGCTAAT (sugars k3 d9 k3 e1, PS) | 73% | –
7 | ATTTAGCATTGCCTGT (sugars k3 d10 k3, PS) | 10% | –
8 | TACACTAATATTGAGG (sugars k3 d10 k3, PS) | 30% | –
9 | TGTGGCATGGCTACAG (sugars kkdddddddddkekek, PS) | 22% | –
10 | ACCAATCCTCAGCTTT (sugars k3 d10 k3, PS) | 11% | –
11 | CTGCUGCTAGTGCCAA (sugars k3 d1 m1 d8 k3, PS) | 66% | –
12 | CTTGGAAGGAGACTGG (sugars k3 d10 k3, PS) | 60% | –
13 | TGAAGCCACTGTGACG (sugars k3 d10 k3, PS) | 49% | –
14 | AACTUCATAGTGGACT (sugars k3 d1 m1 d8 k3, PS) | 38% | –
15 | ATGGCTACAGATTGGA (sugars k3 d10 k3, PS) | 72% | –
16 | AACAACCCAGCCTCGG (sugars k3 d10 k3, PS) | 20% | –
17 | TGTGCACTCATTCTGT (sugars k3 d10 k3, PS) | 18% | –
18 | GAATAGCCATGTAGCT (sugars k3 d10 k3, PS) | 21% | –
19 | ACTGAAGGTCTGAGCT (sugars k3 d10 k3, PS) | 20% | –
20 | GTTGAGTAGTGTAAGC (sugars k3 d10 k3, PS) | 53% | –
21 | AACTTCATAGTGGACT (sugars k3 d9 k3 e1, PS) | 70% | –
22 | GCAGAAATTCACCTTG (sugars k3 d9 k3 e1, PS) | 62% | –
23 | GAACAATATGGGATGA (sugars kkdddddddddkekek, PS) | 49% | –
24 | CGACTCCAAGTAGGAG (sugars k3 d10 k3, PS) | 10% | –

Row | Sequence | target mRNA inhibition (1 µM) | further results
25 | TACAGTAGGCAGTTTC (sugars k3 d10 k3, PS) | 60% | –
26 | ATGTCATAAAAATCGC (sugars k3 d10 k3, PS) | 53% | –
27 | CTATAACTGGAAGGAG (sugars k3 d10 k3, PS) | 43% | –
28 | TAGCTGTGCACTCATT (sugars kkdddddddddkekek, PS) | 53% | –
29 | CATAAGTAGTCTGCCT (sugars k3 d10 k3, PS) | 31% | –
30 | TTAGTCTTGATGTAGT (sugars k3 d9 k3 e1, PS) | 61% | –
31 | TTAGCTGTGCACTCAT (sugars k3 d10 k3, PS) | 61% | –
32 | CACTTTCACTGGGTGT (sugars k3 d10 k3, PS) | 7% | –
33 | TGTGAGAGGATAGTGA (sugars k3 d10 k3, PS) | 50% | –
34 | GAAAAGCCTGACTCAC (sugars k3 d10 k3, PS) | 48% | –
35 | TGTACAGTAGGCAGTT (sugars k3 d10 k3, PS) | 75% | –
36 | AGCTATTGTCTTTGAT (sugars k3 d10 k3, PS) | 39% | –
37 | TACAGATTGGAATGCT (sugars k3 d1 m1 d8 k3, PS) | 60% | –
38 | CTCCGTTATAAGTTTC (sugars k3 d10 k3, PS) | 59% | –
39 | TTAGUATAGTTATCTT (sugars k3 d1 m1 d8 k3, PS) | 22% | –
40 | CTCTTAGCTGTGCACT (sugars k3 d10 k3, PS) | 53% | –
41 | CTGGTTCAGTCCTTGT (sugars k3 d10 k3, PS) | 63% | –
42 | GCACATCATGTTTTGC (sugars k3 d10 k3, PS) | 44% | –
43 | CATAAGTTACCAGAGC (sugars k3 d10 k3, PS) | 80% | target mRNA inhibition (0.02 µM): 26%; target mRNA inhibition (0.078 µM): 41%; target mRNA inhibition (0.313 µM): 63%; target mRNA inhibition (1.25 µM): 86%; target mRNA inhibition (5 µM): 94%
44 | CAGAAGGATTTCTAGG (sugars k3 d10 k3, PS) | 43% | –
45 | CACACCGCGCTTATTA (sugars k3 d10 k3, PS) | 11% | –
46 | AGTCATTTTTAATACG (sugars k3 d10 k3, PS) | 13% | –
47 | GTTTTGGGCTAATGAA (sugars k3 d10 k3, PS) | 54% | –
48 | TGCTAAAAGCTCACCA (sugars k3 d10 k3, PS) | 49% | –

Row | Sequence | target mRNA inhibition (1 µM) | further results
49 | CAAATTTGCTGGAACT (sugars k3 d10 k3, PS) | 39% | –
50 | CATCTAGAATTAAGGG (sugars k3 d10 k3, PS) | 53% | –
51 | TCACAATCTAGCAACC (sugars k3 d10 k3, PS) | 4% | –
52 | TTGAAGACAATACAGG (sugars k3 d10 k3, PS) | 63% | –
53 | ATCCATTCTATGCAAG (sugars k3 d10 k3, PS) | 46% | –
54 | TAAAGGTGGGATAAAC (sugars k3 d10 k3, PS) | 0% | –
55 | ACTTTTGGTGGACTTC (sugars k3 d10 k3, PS) | 0% | –
56 | TATGAAGTTAGTATAG (sugars k3 d9 k3 e1, PS) | 13% | –
57 | GTTTTATAACTGAGCT (sugars k3 d10 k3, PS) | 84% | target mRNA inhibition (0.02 µM): 16%; target mRNA inhibition (0.078 µM): 29%; target mRNA inhibition (0.313 µM): 53%; target mRNA inhibition (1.25 µM): 84%; target mRNA inhibition (5 µM): 85%
58 | GGGCTAATGAAAAAGG (sugars k3 d10 k3, PS) | 14% | –
59 | ATTACTTCTGATGTCC (sugars k3 d10 k3, PS) | 65% | –
60 | TACCTCTAAGTTAGCC (sugars k3 d9 k3 e1, PS) | 30% | –
61 | GTATTCCATCTATCAG (sugars k3 d9 k3 e1, PS) | 51% | –
62 | GACAACTGATGTCCAG (sugars k3 d10 k3, PS) | 12% | –
63 | GAAGTTAGTATAGTTA (sugars k3 d10 k3, PS) | 59% | –
64 | TAACTACAAGAGGTTA (sugars k3 d10 k3, PS) | 22% | –
65 | ACCAAGGCCATGACAT (sugars k3 d10 k3, PS) | 17% | –
66 | GATTTCTAGGATGATG (sugars k3 d10 k3, PS) | 57% | –
67 | AAGACATTCTAGCCTG (sugars k3 d1 m1 d8 k3, PS) | 54% | –
68 | TTGGAATGCTACTTGA (sugars k3 d1 m1 d8 k3, PS) | 65% | –
69 | TATAGGTAGCTAATGT (sugars k3 d10 k3, PS) | 31% | –
70 | AGAGTCGGTCACCTTT (sugars k3 d9 k3 e1, PS) | 66% | –
71 | GCCAGTACAGTTCCTT (sugars k3 d10 k3, PS) | 61% | –
72 | CTAGGGAAATCTTTCA (sugars kkdddddddddkekek, PS) | 46% | –

Row | Sequence | target mRNA inhibition (1 µM) | further results
73 | GCAAGCCAACAGAGAG (sugars k3 d1 m1 d8 k3, PS) | 26% | –
74 | AAGGAGCTAGATACTC (sugars k3 d10 k3, PS) | 19% | –
75 | CTATATAAATTCTGAC (sugars k3 d10 k3, PS) | 0% | –
76 | TTGATAAAATAGGGTG (sugars k3 d10 k3, PS) | 46% | –
77 | TAGAATAGTCTTCAGC (sugars kkdddddddddkekek, PS) | 50% | –
78 | CATCGATGGAAGAAGT (sugars k3 d10 k3, PS) | 16% | –
79 | TATTCTGTGGCATGGC (sugars kkdddddddddkekek, PS) | 57% | –
80 | TTTATTATGAGGATCT (sugars k3 d10 k3, PS) | 43% | –
81 | GCTAATGTATGAGGTC (sugars k3 d10 k3, PS) | 78% | target mRNA inhibition (0.02 µM): 0%; target mRNA inhibition (0.078 µM): 0%; target mRNA inhibition (0.313 µM): 34%; target mRNA inhibition (1.25 µM): 64%; target mRNA inhibition (5 µM): 82%
82 | GTATTCCATAAAGCTG (sugars k3 d10 k3, PS) | 10% | –
83 | GCTTATGAAGTTAGTA (sugars k3 d10 k3, PS) | 67% | target mRNA inhibition (0.02 µM): 0%; target mRNA inhibition (0.078 µM): 17%; target mRNA inhibition (0.313 µM): 27%; target mRNA inhibition (1.25 µM): 66%; target mRNA inhibition (5 µM): 86%
84 | AGACAGACTGTTGAGC (sugars k3 d10 k3, PS) | 74% | –
85 | CGGTCACCTTTCATAA (sugars k3 d1 m1 d8 k3, PS) | 42% | –
86 | GAGTAGTGTAAGCTGA (sugars k3 d10 k3, PS) | 80% | target mRNA inhibition (0.02 µM): 12%; target mRNA inhibition (0.078 µM): 12%; target mRNA inhibition (0.313 µM): 51%; target mRNA inhibition (1.25 µM): 69%; target mRNA inhibition (5 µM): 92%
87 | TAAACCTTCCCTGTGT (sugars k3 d9 k3 e1, PS) | 23% | –
88 | AGTAGTGTAAGCTGAG (sugars kkdddddddddkekek, PS) | 52% | –
89 | ACTAATATTGAGGCAC (sugars kkdddddddddkekek, PS) | 27% | –
90 | TATCAACCTGCACACC (sugars k3 d10 k3, PS) | 62% | –
91 | TAGAACTGTGTTGCTT (sugars k3 d10 k3, PS) | 78% | target mRNA inhibition (0.02 µM): 14%; target mRNA inhibition (0.078 µM): 27%; target mRNA inhibition (0.313 µM): 57%; target mRNA inhibition (1.25 µM): 78%; target mRNA inhibition (5 µM): 90%
92 | AGTAATCACAAGTAAG (sugars k3 d10 k3, PS) | 54% | –
93 | TTATAACTACAAGAGG (sugars k3 d10 k3, PS) | 68% | target mRNA inhibition (0.02 µM): 1%; target mRNA inhibition (0.078 µM): 25%; target mRNA inhibition (0.313 µM): 26%; target mRNA inhibition (1.25 µM): 60%; target mRNA inhibition (5 µM): 82%
94 | TGATTGAGTTCTCCAC (sugars k3 d10 k3, PS) | 48% | –
95 | AGTCTACCACATACGC (sugars k3 d10 k3, PS) | 65% | –
96 | CACCAACGACTCCAAG (sugars k3 d10 k3, PS) | 16% | –
